pIC50: −log10 of the molar value.
Experiments:
PIK3CG (human) = PIK3CG (human) (UniProt P48736); experiment: Assessment of PI3KCG Kinase Activity
PIK3CD (Human) = PIK3CD (Human) (UniProt O00329); experiment: Assessment of PI3KCD Kinase Activity
PIK3CD (Human), sequence (O00329 whole entry, looked up): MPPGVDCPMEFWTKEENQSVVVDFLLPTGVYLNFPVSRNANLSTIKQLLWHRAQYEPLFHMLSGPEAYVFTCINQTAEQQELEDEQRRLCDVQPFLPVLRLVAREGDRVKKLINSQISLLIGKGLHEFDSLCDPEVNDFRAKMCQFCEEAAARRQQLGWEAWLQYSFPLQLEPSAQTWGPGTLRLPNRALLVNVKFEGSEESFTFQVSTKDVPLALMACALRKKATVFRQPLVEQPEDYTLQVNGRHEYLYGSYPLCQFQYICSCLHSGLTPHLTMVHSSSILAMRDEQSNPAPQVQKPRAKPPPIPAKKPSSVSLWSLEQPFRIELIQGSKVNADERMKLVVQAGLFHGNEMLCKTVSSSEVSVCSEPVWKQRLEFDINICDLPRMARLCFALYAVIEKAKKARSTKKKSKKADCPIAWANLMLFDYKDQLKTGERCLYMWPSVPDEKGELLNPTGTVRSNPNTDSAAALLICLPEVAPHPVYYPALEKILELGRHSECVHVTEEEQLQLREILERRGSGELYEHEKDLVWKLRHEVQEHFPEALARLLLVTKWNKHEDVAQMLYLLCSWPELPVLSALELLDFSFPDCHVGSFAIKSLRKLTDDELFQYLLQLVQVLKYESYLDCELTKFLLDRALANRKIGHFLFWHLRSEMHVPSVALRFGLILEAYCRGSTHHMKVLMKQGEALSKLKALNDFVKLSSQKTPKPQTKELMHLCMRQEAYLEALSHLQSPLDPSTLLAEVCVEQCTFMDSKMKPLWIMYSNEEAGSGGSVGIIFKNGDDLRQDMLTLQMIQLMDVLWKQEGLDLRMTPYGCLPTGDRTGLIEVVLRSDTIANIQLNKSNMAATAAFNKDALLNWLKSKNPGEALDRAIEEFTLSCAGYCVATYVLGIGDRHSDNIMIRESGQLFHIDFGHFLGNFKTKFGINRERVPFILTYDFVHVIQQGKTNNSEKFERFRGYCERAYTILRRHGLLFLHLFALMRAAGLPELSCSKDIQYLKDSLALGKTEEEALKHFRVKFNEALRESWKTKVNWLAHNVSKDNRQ

PIK3CG (human), sequence (P48736 whole entry, looked up): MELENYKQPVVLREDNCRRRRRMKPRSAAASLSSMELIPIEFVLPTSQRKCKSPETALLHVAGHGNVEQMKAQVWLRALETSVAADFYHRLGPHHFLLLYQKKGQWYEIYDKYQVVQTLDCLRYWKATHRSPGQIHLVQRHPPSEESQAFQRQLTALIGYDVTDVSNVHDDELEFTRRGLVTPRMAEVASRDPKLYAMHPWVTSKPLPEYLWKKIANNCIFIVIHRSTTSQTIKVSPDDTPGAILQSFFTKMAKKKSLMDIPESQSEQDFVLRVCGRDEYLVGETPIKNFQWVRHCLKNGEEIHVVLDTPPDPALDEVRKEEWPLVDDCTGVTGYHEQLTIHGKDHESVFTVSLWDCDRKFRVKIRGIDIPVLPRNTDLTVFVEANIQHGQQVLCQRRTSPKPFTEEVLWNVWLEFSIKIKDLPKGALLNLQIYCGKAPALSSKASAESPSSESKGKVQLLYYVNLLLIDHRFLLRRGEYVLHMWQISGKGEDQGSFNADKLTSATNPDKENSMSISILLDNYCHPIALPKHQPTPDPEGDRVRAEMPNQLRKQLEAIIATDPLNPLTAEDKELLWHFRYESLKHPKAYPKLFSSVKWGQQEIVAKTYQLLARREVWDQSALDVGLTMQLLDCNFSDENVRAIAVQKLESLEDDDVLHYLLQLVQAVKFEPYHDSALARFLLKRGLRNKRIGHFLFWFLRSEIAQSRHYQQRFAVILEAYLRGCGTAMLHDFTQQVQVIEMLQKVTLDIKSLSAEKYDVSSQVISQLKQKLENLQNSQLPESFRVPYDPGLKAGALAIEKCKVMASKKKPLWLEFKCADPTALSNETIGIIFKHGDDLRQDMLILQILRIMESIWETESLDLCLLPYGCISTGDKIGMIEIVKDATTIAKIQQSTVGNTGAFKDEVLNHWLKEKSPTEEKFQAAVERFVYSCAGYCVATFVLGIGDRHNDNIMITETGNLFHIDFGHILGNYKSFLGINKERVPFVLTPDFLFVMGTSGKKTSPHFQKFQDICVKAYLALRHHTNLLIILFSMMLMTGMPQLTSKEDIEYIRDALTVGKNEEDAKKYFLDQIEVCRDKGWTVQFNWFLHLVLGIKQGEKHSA

Structure (SMILES)	pIC50 (PIK3CG (human))	pIC50 (PIK3CD (Human))
CCc1ccccc1-n1c(Cn2nc(I)c3c(N)ncnc32)cc2cccc(C)c2c1=O	> 7.00	> 7.00
Cc1ccccc1-n1c(Cn2nc(-c3ccc4nc(N)sc4c3)c3c(N)ncnc32)cc2cccc(C)c2c1=O	> 7.00	> 7.00
Cc1cccnc1-n1c(Cn2nc(-c3cc(O)cc(F)c3)c3c(N)ncnc32)cc2cccc(C)c2c1=O	> 7.00	> 7.00
Cc1ccccc1-n1c(Cn2nc(-c3ccc(F)c(O)c3)c3c(N)ncnc32)nc2scc(C)c2c1=O	> 7.00	> 7.00
Cc1ccccc1-n1c(Cn2nc(-c3ccc4cc[nH]c4c3)c3c(N)ncnc32)nc2scc(C)c2c1=O	> 7.00	> 7.00
CC(=O)Nc1nc2ccc(-c3nn(Cc4cc5ccccc5c(=O)n4-c4ccccc4C)c4ncnc(N)c34)cc2s1	> 7.00	> 7.00
Cc1cccc2cc(Cn3nc(-c4cc(O)cc(F)c4)c4c(N)ncnc43)n(-c3ccccc3Cl)c(=O)c12	> 7.00	> 7.00
Cc1ccccc1-n1c(Cn2nc(-c3ccc(F)c(O)c3)c3c(N)ncnc32)cc2cccc(F)c2c1=O	> 7.00	> 7.00
Cc1cccc2cc(Cn3nc(-c4ccc(F)c(O)c4)c4c(N)ncnc43)n(C(C)C)c(=O)c12	> 7.00	> 7.00
Cc1cccc2cc(Cn3nc(-c4ccc(F)c(O)c4)c4c(N)ncnc43)n(C3CCCC3)c(=O)c12	> 7.00	> 7.00
Cc1csc2nc(Cn3nc(I)c4c(N)ncnc43)n(-c3ccccc3C(C)C)c(=O)c12	> 7.00	> 7.00
Cc1csc2nc(Cn3nc(-c4cccc(O)c4)c4c(N)ncnc43)n(-c3ccccc3C(F)(F)F)c(=O)c12	> 7.00	> 7.00
Cc1cccc2cc(Cn3nc(-c4cccc(O)c4)c4c(N)ncnc43)n(C3CC3)c(=O)c12	> 7.00	> 7.00
Cc1cccc2cc(Cn3nc(I)c4c(N)ncnc43)n(-c3ccccc3C(C)C)c(=O)c12	> 7.00	> 7.00
Cc1ccccc1-n1c(Cn2nc(-c3ccc(O)c(F)c3)c3c(N)ncnc32)cc2cccc(C)c2c1=O	> 7.00	> 7.00
CC(=O)Nc1nc2ccc(-c3nn(Cc4cc5cccc(C)c5c(=O)n4-c4ccccc4C)c4ncnc(N)c34)cc2s1	> 7.00	–
Cc1cccc2cc(Cn3nc(-c4cc(O)cc(F)c4)c4c(N)ncnc43)n(-c3ccccc3F)c(=O)c12	> 7.00	> 7.00
Cc1ccccc1-n1c(Cn2nc(I)c3c(N)ncnc32)cc2cccc(C)c2c1=O	> 7.00	> 7.00
Cc1ccccc1-n1c(Cn2nc(-c3cccc(O)c3)c3c(N)ncnc32)cc2cccc(F)c2c1=O	> 7.00	> 7.00
Cc1ccccc1-n1c(Cn2nc(C3=CCC4OC(N)=NC4=C3)c3c(N)ncnc32)cc2cccc(C)c2c1=O (stereo not drawn)	> 7.00	> 7.00
Cc1ccccc1-n1c(Cn2nc(-c3ccc(Cl)c(O)c3)c3c(N)ncnc32)cc2cccc(C)c2c1=O	> 7.00	> 7.00
Cc1ccccc1-n1c(Cn2nc(I)c3c(N)ncnc32)cc2ccccc2c1=O	> 7.00	–
Cc1ccccc1-n1c(Cn2nc(-c3ccc(O)c(Cl)c3)c3c(N)ncnc32)nc2scc(C)c2c1=O	> 7.00	> 7.00
CCc1ccccc1-n1c(Cn2nc(-c3cc(O)cc(F)c3)c3c(N)ncnc32)cc2cccc(C)c2c1=O	> 7.00	> 7.00
Cc1cccc2cc(Cn3nc(-c4cc(O)cc(F)c4)c4c(N)ncnc43)n(C3CCCC3)c(=O)c12	> 7.00	> 7.00
Cc1cccc2cc(Cn3nc(I)c4c(N)ncnc43)n(C3CC3)c(=O)c12	> 7.00	> 7.00
CCc1ccccc1-n1c(Cn2nc(-c3cn[nH]c3)c3c(N)ncnc32)cc2cccc(C)c2c1=O	> 7.00	> 7.00

Structure (SMILES)	pIC50 (PIK3CG (human))	pIC50 (PIK3CD (Human))
CCc1ccccc1-n1c(Cn2nc(-c3cccc(O)c3)c3c(N)ncnc32)cc2cccc(C)c2c1=O	> 7.00	> 7.00
Cc1csc2nc(Cn3nc(-c4cc(O)cc(F)c4)c4c(N)ncnc43)n(-c3ccccc3F)c(=O)c12	> 7.00	> 7.00
Cc1ccccc1-n1c(Cn2nc(-c3ccn[nH]3)c3c(N)ncnc32)cc2cccc(C)c2c1=O	> 7.00	–
Cc1cccc2cc(Cn3nc(-c4ccc(Cl)c(O)c4)c4c(N)ncnc43)n(-c3ccccc3F)c(=O)c12	> 7.00	> 7.00
COc1ccc(-c2nn(Cc3cc4cccc(C)c4c(=O)n3-c3ccccc3C)c3ncnc(N)c23)cc1	> 7.00	–
Cc1ccccc1-n1c(Cn2nc(-c3ccc4cc[nH]c4c3)c3c(N)ncnc32)cc2cccc(C)c2c1=O	> 7.00	> 7.00
COc1ccccc1-n1c(Cn2nc(-c3cc(O)cc(F)c3)c3c(N)ncnc32)nc2scc(C)c2c1=O	> 7.00	> 7.00
Cc1cccc2cc(Cn3nc(-c4cc(O)cc(F)c4)c4c(N)ncnc43)n(-c3ccccc3O)c(=O)c12	> 7.00	> 7.00
Cc1cccc2cc(Cn3nc(-c4ccc(O)c(Cl)c4)c4c(N)ncnc43)n(-c3ccccc3F)c(=O)c12	> 7.00	–
Cc1ccccc1-n1c(Cn2nc(-c3cn[nH]c3)c3c(N)ncnc32)cc2cccc(C)c2c1=O	> 7.00	> 7.00
Cc1cccc2cc(Cn3nc(-c4cc(O)cc(F)c4)c4c(N)ncnc43)n(-c3ccccc3C(C)C)c(=O)c12	> 7.00	> 7.00
Cc1ccccc1-n1c(C(C)Nc2ncnc3[nH]cnc23)cc2cccc(C)c2c1=O (stereo not drawn)	> 7.00	> 7.00
COc1cc(-c2nn(Cc3cc4cccc(C)c4c(=O)n3-c3ccccc3C)c3ncnc(N)c23)ccc1Cl	> 7.00	–
COc1ccccc1-n1c(Cn2nc(C#C[C@@H](C)O)c3c(N)ncnc32)cc2cccc(C)c2c1=O	–	> 7.00
Cc1csc2nc(Cn3nc(-c4cccc(O)c4)c4c(N)ncnc43)n(-c3ccccc3Cl)c(=O)c12	–	> 7.00
Cc1cccc2cc(Cn3nc(C#C[C@@H](C)O)c4c(N)ncnc43)n(-c3ccccc3Cl)c(=O)c12	–	> 7.00
Cc1csc2nc(Cn3nc(-c4ccc(O)c(F)c4)c4c(N)ncnc43)n(-c3ccccc3F)c(=O)c12	> 7.00	–
Cc1cccc2cc(Cn3nc(-c4cccc(O)c4)c4c(N)ncnc43)n(C3CCCC3)c(=O)c12	–	> 7.00
Nc1ncnc2c1c(-c1cccc(O)c1)nn2Cc1cc2cccc(Cl)c2c(=O)n1C1CC1	–	> 7.00
Cc1csc2nc(Cn3nc(-c4cc(O)cc(F)c4)c4c(N)ncnc43)n(-c3ccccc3Cl)c(=O)c12	–	> 7.00
Cc1ccccc1-n1c(Cn2nc(-c3ccc(O)c(F)c3)c3c(N)ncnc32)cc2nccc(C)c2c1=O	–	> 7.00
Cc1ccccc1-n1c(Cn2nc(-c3cc(O)cc(F)c3)c3c(N)ncnc32)cc2cccc(F)c2c1=O	–	> 7.00
Cc1cccc2cc(Cn3nc(C#C[C@@H](C)O)c4c(N)ncnc43)n(C3CCCCC3)c(=O)c12	–	> 7.00
Cc1cccc2cc(Cn3nc(C#CCO)c4c(N)ncnc43)n(-c3ccccc3F)c(=O)c12	–	> 7.00
Cc1cccc2cc(Cn3nc(I)c4c(N)ncnc43)n(-c3ccccc3Cl)c(=O)c12	–	> 7.00
Cc1cccc2cc(Cn3nc(-c4cccc(O)c4)c4c(N)ncnc43)n(C3CCCCC3)c(=O)c12	–	> 7.00
Cc1ccccc1-n1c(Cn2nc(C#C[C@@H](C)O)c3c(N)ncnc32)cc2nccc(C)c2c1=O	–	> 7.00

Structure (SMILES)	pIC50 (PIK3CG (human))	pIC50 (PIK3CD (Human))
Cc1cccnc1-n1c(Cn2nc(-c3cccc(O)c3)c3c(N)ncnc32)nc2scc(C)c2c1=O	–	> 7.00
Cc1cccc2cc(Cn3nc(-c4cc(O)cc(F)c4)c4c(N)ncnc43)n(-c3ccccc3OCCN3CCOCC3)c(=O)c12	–	> 7.00
Cc1ccccc1-n1c(Cn2nc(C#CCO)c3c(N)ncnc32)nc2scc(C)c2c1=O	–	> 7.00
Cc1cccc2cc(Cn3nc(-c4cccc(O)c4)c4c(N)ncnc43)n(-c3ccccc3F)c(=O)c12	–	> 7.00
Cc1csc2nc(Cn3nc(Cl)c4c(N)ncnc43)n(-c3ccccc3C(F)(F)F)c(=O)c12	–	> 7.00
Cc1ccccc1-n1c(Cn2nc(I)c3c(N)nccc32)cc2cccc(C)c2c1=O	–	> 7.00
Cc1cccc2cc(Cn3nc(C#C[C@@H](C)O)c4c(N)ncnc43)n(C(C)C)c(=O)c12	–	> 7.00
COc1ccccc1-n1c(Cn2nc(C#C[C@@H](C)O)c3c(N)ncnc32)nc2scc(C)c2c1=O	–	> 7.00
Cc1cccc2cc(Cn3nc(-c4cccc(O)c4)c4c(N)ncnc43)n(C)c(=O)c12	–	> 7.00
Cc1cccc2cc(Cn3nc(-c4cn[nH]c4)c4c(N)ncnc43)n(-c3ccccc3Cl)c(=O)c12	–	> 7.00
COc1ccccc1-n1c(Cn2nc(Br)c3c(N)ncnc32)nc2scc(C)c2c1=O	–	> 7.00
Cc1cccc2cc(Cn3nc(-c4cc(O)cc(F)c4)c4c(N)ncnc43)n(C(C)C)c(=O)c12	–	> 7.00
Cc1cccc2cc(Cn3nc(-c4cccc(O)c4)c4c(N)ncnc43)n(-c3ccccc3OCCN3CCOCC3)c(=O)c12	–	> 7.00
Cc1ccccc1-n1c(Cn2nc(C#CCO)c3c(N)ncnc32)cc2cccc(C)c2c1=O	–	> 7.00
Cc1ccccc1-n1c(Cn2nc(Br)c3c(N)ncnc32)nc2nccc(C)c2c1=O	–	> 7.00
Cc1cccnc1-n1c(Cn2nc(-c3cc(O)cc(F)c3)c3c(N)ncnc32)cc2ccccc2c1=O	–	> 7.00
Cc1cccc2cc(Cn3nc(I)c4c(N)ncnc43)n(-c3ccccc3OCCN3CCOCC3)c(=O)c12	–	> 7.00
Cc1ccccc1-n1c(Cn2nc(-c3ccc(O)cc3)c3c(N)ncnc32)cc2cccc(C)c2c1=O	> 7.00	–
Cc1cccc2cc(Cn3nc(I)c4c(N)ncnc43)n(C3CCCCC3)c(=O)c12	> 7.00	–
Cc1csc2nc(Cn3nc(Br)c4c(N)ncnc43)n(-c3ccccc3Cl)c(=O)c12	–	> 7.00
COc1ccc(-c2nn(Cc3cc4cccc(C)c4c(=O)n3-c3ccccc3C)c3ncnc(N)c23)cc1OC	> 7.00	–
Cc1ccccc1-n1c(Cn2nc(-c3cccc(O)c3)c3c(N)ncnc32)nc2cnn(C)c2c1=O	–	> 7.00
Cc1cccc2cc(Cn3nc(-c4ccc(Cl)c(O)c4)c4c(N)ncnc43)n(C(C)C)c(=O)c12	–	> 7.00
Cc1cccc2cc(Cn3nc(-c4ccc(O)c(F)c4)c4c(N)ncnc43)n(-c3ccccc3F)c(=O)c12	> 7.00	–
Cc1csc2nc(Cn3nc(C#C[C@@H](C)O)c4c(N)ncnc43)n(-c3ccccc3C(C)C)c(=O)c12	–	> 7.00
